Laboratory results as given in ChEMBL document CHEMBL3352547, “A concise diastereoselective approach to enantioenriched substituted piperidines and their in vitro cytotoxicity evaluation” (Bioorg Med Chem Lett, 2014).

How the values were obtained:
Type in all cases: functional, cell-based
A549 = experiment: Cytotoxicity against human A549 cells by MTT assay
DU-145 = experiment: Cytotoxicity against human DU145 cells by MTT assay
HeLa = experiment: Cytotoxicity against human HeLa cells by MTT assay
MCF7 = experiment: Cytotoxicity against human MCF7 cells by MTT assay
[1] = Homo sapiens, A549, read-out: IC50
[2] = Homo sapiens, DU-145, read-out: IC50
[3] = Homo sapiens, HeLa, read-out: IC50
[4] = Homo sapiens, MCF7, read-out: IC50

Structure (SMILES)	IC50 (A549; [1]) [µM]	IC50 (DU-145; [2]) [µM]	IC50 (HeLa; [3]) [µM]	IC50 (MCF7; [4]) [µM]	IC50 (HeLa; hela)	IC50 (MCF7; mcf7)	IC50 (A549; a549)	IC50 (DU-145; du-145)
COC(=O)C[C@H]1C[C@@H](O)[C@@H](C)[C@@H](c2ccc(F)cc2)N1	26.6	51.7	19.8	15.6				
COC(=O)C[C@H]1C[C@H](O)[C@@H](C)[C@@H](c2ccc(C)cc2)N1	97.6	330			Not Active	Not Active		
COC(=O)C[C@H]1C[C@@H](O)[C@H](C)[C@@H](c2ccccc2)N1	34.6	64.1	35.2	35.6				
COc1ccc([C@H]2N[C@@H](CC(=O)O)C[C@H](O)[C@H]2C)cc1	20.1	15.7	19.9	12.5				
COc1ccc([C@H]2N[C@@H](CCO)C[C@H](O)[C@H]2C)cc1	17.6	14.8	16.5	13.7				
COC(=O)C[C@@H]1C[C@@H](O)[C@H](C)[C@H](c2ccccc2)N1	8.5	6.3	6.5	5.4				
COC(=O)C[C@H]1C[C@H](O)[C@@H](C)[C@@H](c2ccc(C(C)C)cc2)N1		27.4	18.2	17.1			Not Active	
C[C@H]1[C@H](O)C[C@@H](CC(=O)O)N[C@H]1c1ccccc1	28.9	46.5	33.4	23.1				
COC(=O)C[C@@H]1C[C@H](O)[C@H](C)[C@H](c2ccccc2)N1	20.5	11.3	14.2	12.3				
COC(=O)C[C@H]1C[C@H](O)[C@@H](C)[C@@H](c2ccc(OC)cc2)N1	5.4	6.5	5.3	5.1				
COC(=O)C[C@H]1C[C@@H](O)[C@@H](C)[C@@H](c2ccc(C(C)C)cc2)N1		110			Not Active	Not Active	Not Active	
COC(=O)C[C@H]1C[C@@H](O)[C@@H](C)[C@@H](c2ccc(C)cc2)N1	29	49.7	13.4	12.2				
COC(=O)C[C@H]1C[C@H](O)[C@H](C)[C@@H](c2ccccc2)N1	69.2		41.1			Not Active		Not Active
COc1cccc2c1C(=O)c1c(O)c3c(c(O)c1C2=O)C[C@@](O)(C(=O)CO)C[C@@H]3O[C@H]1C[C@H](N)[C@H](O)[C@H](C)O1 [DOXORUBICIN]	0.6		0.7	0.6				
COC(=O)C[C@H]1C[C@H](O)[C@@H](C)[C@@H](c2ccc(F)cc2)N1	17.2		17.4	18.2				Not Active
COC(=O)C[C@H]1C[C@@H](O)[C@@H](C)[C@@H](c2ccc(OC)cc2)N1	23.5	12.6	11.5	10.4				
C[C@H]1[C@H](O)C[C@@H](CCO)N[C@H]1c1ccccc1	31.2	41.6	31.5	39.8				
